In patent publication US9255078B2, “Micheliolide derivatives, medicinal composition, producing method and usage thereof” (ACCENDATECH, priority 2010, dated 2016):
Counter-ions that a name gives are not always drawn. Like-named read-outs stand apart in the source and are kept apart here. One block for each molecule: values may come before it.

Tests used:
Assay type in all cases: cell-based
Details in all cases: incubated 18 hours, read-out: inhibitory activity against different cancer cells (IC50)
HepG-2 = test: MTT assay, HepG-2 hepatocellular carcinoma cell lines
Protocol: (§1) A variety of cancer cells are suspended to 2×10^5/mL, and then added into 24-hole Round-bottomed tissue culture plate. After that micheliolide and its derivatives are added, herein a test with one density occupies 5 holes. The resulting suspension are incubated (under 37° C., 5% CO2) for 18 hours to allow the compounds to take effect. A absorbance (A) value is measured by using the method of MTT assay and an enzyme-linked detector under 570 nm wavelength, and then the inhibitory activity of the compounds is concluded.
(§2) In Table 1, HL-60, K562, MCF-7, CNE-1, CNE-2, SW620, A549, HepG2, Ec9706, SGC7901, SW1116, A498, ASPC-1, HT-29, HeLa, GL15, B16F1, T24, SKOV3, SW579, PC-3, represents acute leukemia cell lines, Chronic leukemia cell lines, Breast cancer cell lines, High differentiation nasopharyngeal carcinoma cell line, Poorly differentiated nasopharyngeal carcinoma cell lines, Colorectal cancer cell line, Lung cancer cell lines, Hepatocellular carcinoma cell lines, Esophageal cancer cell line, Gastric cancer cell line, Colon cancer cell line, Renal cell carcinoma cell line, Pancreatic cancer cell line, Colon cancer cell lines, uterine cervical cancer cell lines, Horny man neuroblastoma cell lines, Melanoma cell line, human bladder cancer cell line, ovarian cancer cell lines, thyroid cancer cells, prostate cancer cell lines, respectively.

PC-3 = test: MTT assay, PC-3 prostate cancer cell lines
Protocol: as §1, §2

SGC7901 = test: MTT assay, SGC7901 gastric cancer cell line
Protocol: as §1, §2

SW579 = test: MTT assay, SW579 thyroid cancer cells
Protocol: as §1, §2

HT-29 = test: MTT assay, HT-29 colon cancer cell lines
Protocol: as §1, §2

MCF-7 = test: MTT assay, MCF-7 breast cancer cell lines
Protocol: as §1, §2

CNE-2 = test: MTT assay, CNE-2 poorly differentiated nasopharyngeal carcinoma cell lines
Protocol: as §1, §2

HL-60 = test: MTT assay, HL-60 acute leukemia cell lines
Protocol: as §1, §2

SKOV3 = test: MTT assay, SKOV3 ovarian cancer cell lines
Protocol: as §1, §2

HeLa = test: MTT assay, HeLa uterine cervical cancer cell lines
Protocol: as §1, §2

ASPC-1 = test: MTT assay, ASPC-1 pancreatic cancer cell line
Protocol: as §1, §2

A549 = test: MTT assay, A549 lung cancer cell lines
Protocol: as §1, §2

CNE-1 = test: MTT assay, CNE-1 high differentiation nasopharyngeal carcinoma cell line
Protocol: as §1, §2

SW1116 = test: MTT assay, SW1116 colon cancer cell line
Protocol: as §1, §2

T24 = test: MTT assay, T24 human bladder cancer cell line
Protocol: as §1, §2

Ec9706 = test: MTT assay, Ec9706 esophageal cancer cell line
Protocol: as §1, §2

GL15 = test: MTT assay, GL15 neuroblastoma cell lines
Protocol: as §1, §2

B16F1 = test: MTT assay, B16F1 melanoma cell line
Protocol: as §1, §2

A498 = test: MTT assay, A498 renal cell carcinoma cell line
Protocol: as §1, §2

SW620 = test: MTT assay, SW620 colorectal cancer cell line
Protocol: as §1, §2

K562 = test: MTT assay, K562 chronic leukemia cell lines
Protocol: as §1, §2

IC50 (HepG-2; Homo sapiens, HepG2, 18 h): 7.4 nM
IC50 (PC-3; Homo sapiens, PC-3, 18 h): 17.2 nM
IC50 (SGC7901; Homo sapiens, SGC-7901, 18 h): 13.4 nM
IC50 (SW579; SW579, 18 h): 12.4 nM
IC50 (HT-29; Homo sapiens, HT-29, 18 h): 9.8 nM
IC50 (MCF-7; Homo sapiens, MCF7, 18 h): 8.9 nM
IC50 (CNE-2; Homo sapiens, CNE-2, 18 h): 5.6 nM
IC50 (HL-60; Homo sapiens, HL-60, 18 h): 5.8 nM
IC50 (SKOV3; Homo sapiens, SK-OV-3, 18 h): 10.4 nM
IC50 (HeLa; Homo sapiens, 18 h): 9.7 nM
IC50 (ASPC-1; Homo sapiens, ASPC1, 18 h): 26.4 nM
IC50 (A549; Homo sapiens, A549, 18 h): 5.7 nM
IC50 (CNE-1; 18 h): 6.7 nM
IC50 (SW1116; Homo sapiens, SW 1116, 18 h): 11.7 nM
IC50 (T24; Homo sapiens, T-24, 18 h): 7.9 nM
IC50 (Ec9706; Homo sapiens, EC9706, 18 h): 6.6 nM
IC50 (GL15; Neuroblastoma cell, 18 h): 21.5 nM
IC50 (B16F1; Mus musculus, B16-F1, 18 h): 5.2 nM
IC50 (A498; Homo sapiens, A498, 18 h): 4.3 nM
IC50 (SW620; Homo sapiens, SW-620, 18 h): 3.8 nM
IC50 (K562; Homo sapiens, K562, 18 h): 9.7 nM
SMILES: C=C1C(=O)O[C@H]2[C@H]1CC[C@]1(C)O[C@@]13CC[C@@](C)(O)[C@H]23 [Compound IV, 1,10-Epoxymicheliolide]

IC50 (HepG-2; Homo sapiens, HepG2, 18 h): 15.4 nM
IC50 (PC-3; Homo sapiens, PC-3, 18 h): 11.4 nM
IC50 (SGC7901; Homo sapiens, SGC-7901, 18 h): 14.7 nM
IC50 (SW579; SW579, 18 h): 22.5 nM
IC50 (HT-29; Homo sapiens, HT-29, 18 h): 9.8 nM
IC50 (MCF-7; Homo sapiens, MCF7, 18 h): 3.4 nM
IC50 (CNE-2; Homo sapiens, CNE-2, 18 h): 12.4 nM
IC50 (HL-60; Homo sapiens, HL-60, 18 h): 4.5 nM
IC50 (SKOV3; Homo sapiens, SK-OV-3, 18 h): 9.4 nM
IC50 (HeLa; Homo sapiens, 18 h): 17.3 nM
IC50 (ASPC-1; Homo sapiens, ASPC1, 18 h): 15.1 nM
IC50 (A549; Homo sapiens, A549, 18 h): 7.7 nM
IC50 (CNE-1; 18 h): 5.9 nM
IC50 (SW1116; Homo sapiens, SW 1116, 18 h): 21.5 nM
IC50 (T24; Homo sapiens, T-24, 18 h): 13.6 nM
IC50 (Ec9706; Homo sapiens, EC9706, 18 h): 7.6 nM
IC50 (GL15; Neuroblastoma cell, 18 h): 14.3 nM
IC50 (B16F1; Mus musculus, B16-F1, 18 h): 13.2 nM
IC50 (A498; Homo sapiens, A498, 18 h): 5.3 nM
IC50 (SW620; Homo sapiens, SW-620, 18 h): 5.6 nM
IC50 (K562; Homo sapiens, K562, 18 h): 6.7 nM
SMILES: C=C1C(=O)O[C@H]2[C@H]1CCC(C)=C1CC[C@@](C)(OC(=O)CC)[C@@H]12 [Compound III, 4-propionylmicheliolide]

IC50 (HepG-2): 4.5 nM
IC50 (PC-3): 8.7 nM
IC50 (SGC7901; Homo sapiens, SGC-7901, 18 h): 14.6 nM
IC50 (SW579; SW579, 18 h): 17.3 nM
IC50 (HT-29): 4.8 nM
IC50 (MCF-7): 4.6 nM
IC50 (CNE-2; Homo sapiens, CNE-2, 18 h): 16.5 nM
IC50 (HL-60): 2.4 nM
IC50 (SKOV3): 5.9 nM
IC50 (HeLa): 9.4 nM
IC50 (ASPC-1): 3.9 nM
IC50 (A549): 7.2 nM
IC50 (CNE-1): 11.2 nM
IC50 (SW1116): 11.5 nM
IC50 (T24; Homo sapiens, T-24, 18 h): 14.2 nM
IC50 (Ec9706; Homo sapiens, EC9706, 18 h): 9.2 nM
IC50 (GL15): 12.6 nM
IC50 (B16F1): 3.4 nM
IC50 (A498; Homo sapiens, A498, 18 h): 12.4 nM
IC50 (SW620): 5.8 nM
IC50 (K562): 4.2 nM
SMILES: CC1=C2CC[C@@](C)(O)[C@@H]2[C@H]2OC(=O)[C@@H](CN(C)C)[C@@H]2CC1 [Compound II, 11βH,13-Dihydro, 13-dimethylaminomicheliolide]

IC50 (HepG-2; hydrochloride): 27.9 nM
IC50 (PC-3; hydrochloride): 23.5 nM
IC50 (SGC7901; hydrochloride): 24.9 nM
IC50 (SW579; hydrochloride): 32.6 nM
IC50 (HT-29; hydrochloride): 19.2 nM
IC50 (MCF-7; hydrochloride): 26.8 nM
IC50 (CNE-2; hydrochloride): 16.9 nM
IC50 (HL-60; hydrochloride): 11.5 nM
IC50 (SKOV3; hydrochloride): 15.4 nM
IC50 (HeLa; hydrochloride): 33.4 nM
IC50 (ASPC-1; hydrochloride): 33.6 nM
IC50 (A549; hydrochloride): 18.1 nM
IC50 (CNE-1; hydrochloride): 22.5 nM
IC50 (SW1116; hydrochloride): 31.2 nM
IC50 (T24; hydrochloride): 22.5 nM
IC50 (Ec9706; hydrochloride): 15.7 nM
IC50 (GL15; hydrochloride): 25.8 nM
IC50 (B16F1; hydrochloride): 18.6 nM
IC50 (A498; hydrochloride): 16.3 nM
IC50 (SW620; hydrochloride): 13.5 nM
IC50 (K562; hydrochloride): 21.4 nM
SMILES: CC1=C2CC[C@@](C)(O)[C@@H]2[C@H]2OC(=O)[C@@H](CN(C)C)[C@@H]2CC1 [Compound V, 11βH,13-Dihydro, 13-dimethylaminomicheliolide hydrochloride]
